Test results as given in patent US11999676B2, “Vesicular monoamine transporter-2 ligands and their use in the treatment of psychostimulant abuse” (priority 2016, dated 2024).
Like-named read-outs stand apart in the source and are kept apart here.

Assays:
VMAT2 [1] = biological target: T1, VMAT2 (Rattus norvegicus (Rat), UniProt Q01827); experiment: [3H]Dopamine ([3H]DA) uptake assay, vesicular preparation; format: biochemical; conditions: rat striatal synaptic vesicles; read-out: [3H]DA uptake (Ki) VMAT2
VMAT2 [2] = biological target: T1, VMAT2; conditions: rat brain synaptic vesicles; read-out: [3H]DTBZ binding (Ki) VMAT2

SMILES | Ki (VMAT2 [1]) [nM] | Ki (VMAT2 [2]) [nM]
CC(Cc1ccccc1)NCCc1ccccc1 (stereo not drawn) [Compound 1] | 63 ± 5 | 7700 ± 1250
CC(Cc1ccccc1)N(C)CCc1ccccc1 (stereo not drawn) [Compound 2] | 510 ± 100 | 7530 ± 2160
CC(Cc1ccc(Br)cc1)NCCc1ccccc1 (stereo not drawn) [Compound 3] | 33 ± 7 | 1230 ± 130
CC(Cc1ccccc1)NCCCc1ccccc1 (stereo not drawn) [Compound 4] | 7 ± 2 | 1130 ± 310
C[C@H](Cc1ccccc1)NCCCc1ccccc1 [Compound 5] | 6 ± 1 | 910 ± 590
C[C@@H](Cc1ccccc1)NCCCc1ccccc1 [Compound 6] | 65 ± 4 | 750 ± 140
CC(Cc1ccccc1)N(C)CCCc1ccccc1 (stereo not drawn) [Compound 7] | 96 ± 10 | 1560 ± 470
COc1ccc(CCCNC(C)Cc2ccccc2)cc1 (stereo not drawn) [Compound 8] | 14 ± 3 | 2200 ± 110
CC(Cc1ccc(Br)cc1)NCCCc1ccccc1 (stereo not drawn) [Compound 11] | 8 ± 1 | 700 ± 63
CC(Cc1ccc(Br)cc1)NCCCCc1ccccc1 (stereo not drawn) [Compound 14] | 3 ± 0.3 | 81 ± 16
CC(Cc1ccccc1)NCCCCc1ccccc1 (stereo not drawn) [Compound 15] | 3 ± 2 | 190 ± 20
COc1ccc(CCCNC(C)Cc2ccc(Br)cc2)cc1 (stereo not drawn) [Compound 16] | 12 ± 3 | 460 ± 80
CC(Cc1ccccc1)NCCCCCc1ccccc1 (stereo not drawn) [Compound 17] | 14 ± 1 | 630
CC(Cc1ccccc1)NCCOc1ccccc1 (stereo not drawn) [Compound 19] | 59 ± 7 | 4100 ± 300
CC(Cc1ccc(Br)cc1)NCCOc1ccccc1 (stereo not drawn) [Compound 20] | 13 ± 9 | 2000 ± 100
CC(Cc1ccccc1)NCCc1ccc(O)cc1 (stereo not drawn) [Compound 21] | 120 ± 10 | 1500 ± 200
CC(Cc1ccccc1)NCCc1ccc(OCc2ccccc2)c(OCc2ccccc2)c1 (stereo not drawn) [Compound 22] | 120 ± 1 | 2000 ± 100

SMILES | Ki (VMAT2 [1]) [nM] | Ki (VMAT2 [2]) [nM]
CC(Cc1ccccc1)NCCc1ccc(O)c(O)c1 (stereo not drawn) [Compound 23] | 92 ± 17 | 3400 ± 600
COc1ccc(CC(C)NCCc2ccccc2)cc1 (stereo not drawn) [Compound 24] | 74 ± 2 | 3770 ± 990
COc1ccc(CC(C)N(C)CCc2ccccc2)cc1 (stereo not drawn) [Compound 25] | 460 ± 75 | 11900 ± 1840
COc1ccc(CC(C)NCCCc2ccccc2)cc1 (stereo not drawn) [Compound 26] | 22 ± 3 | 1270 ± 90
COc1ccc(CCCNC(C)Cc2ccc(OC)cc2)cc1 (stereo not drawn) [Compound 29] | 11 ± 2 | 410 ± 140
COc1ccc(CC(C)N(C)CCCc2ccccc2)cc1 (stereo not drawn) [Compound 30] | 270 ± 38 | 7110 ± 820
COc1ccc(CCC(C)NCCc2ccccc2)cc1 (stereo not drawn) [Compound 31] | 62 ± 29 | 2400 ± 100
COc1ccc(CCC(C)NCCCc2ccccc2)cc1 (stereo not drawn) [Compound 32] | 30 ± 2 | 4700 ± 400
COc1ccc(CCNC(C)CCc2ccc(OC)cc2)cc1 (stereo not drawn) [Compound 33] | 60 ± 7 | 1500 ± 200
COc1ccc(CCC(C)NCCc2ccc(Br)cc2)cc1 (stereo not drawn) [Compound 34] | 10 ± 4 | 870 ± 30
CC(Cc1ccc(O)cc1)NCCc1ccccc1 (stereo not drawn) [Compound 35] | 47 ± 6 | 2600 ± 400
COc1ccc(CCCNC(C)Cc2ccc(O)cc2)cc1 (stereo not drawn) [Compound 36] | 72 ± 30 | 230 ± 60
CC(Cc1ccc(O)cc1)NCCCc1ccccc1 (stereo not drawn) [Compound 37] | 33 ± 8 | 820 ± 270
CC(Cc1ccc(F)cc1)NCCc1ccccc1 (stereo not drawn) [Compound 38] | 69 ± 9 | 2500 ± 1600
CC(Cc1ccc(F)cc1)NCCCc1ccccc1 (stereo not drawn) [Compound 39] | 10 ± 0.2 | 1300 ± 300
COc1ccc(CCCNC(C)Cc2ccc(F)cc2)cc1 (stereo not drawn) [Compound 40] | 17 ± 3 | 1700 ± 400
